Results on four compounds are retold here after patent US10314838B2, “Compositions of buprenorphine and μ antagonists” (priority 2011, dated 2019).

Read-outs that look alike come from different tables or passages of the source.

One may read the Cmax as the peak of the concentration-time curve. Broadly, the IC50 is the concentration needed to halve the response being measured.

Data set [1] concerns NAc-sh dopamine and 5-HIAA. In words: NAc-sh dopamine and 5-HIAA in WKY rats undergoing forced swim test. In kind it is in vivo, rat. As to conditions: highest dose of Compound 1, buprenorphine 0.1 mg/kg, WKY rats in FST. As to the method:
FIG. 6: The effect of Compound-1 on dopamine efflux in WKY rats undergoing forced swim test after treatment with Buprenorphine (0.1 mg/kg).
FIG. 7: The efflux of Compound-1 on 5-Hydroxyindoleacetic acid (5-HIAA) release in WKY rats undergoing the forced swim test after treatment with Buprenorphine (0.1 mg/kg).

The nature of data set [2]: Plasma Cmax in patients (LC/MS/MS). As to conditions: human, 8 mg.
Experimental: Samples were analyzed using a 50 μL aliquot volume and a protein-precipitation extraction procedure followed by liquid chromatography/tandem mass spectrometry (LC/MS/MS).
Samples were analyzed using a 400 μL aliquot volume and a solid-phase extraction procedure followed by liquid chromatography/tandem mass spectrometry (LC/MS/MS).
A further data set concerns the target T1, human μ opioid receptor (Homo sapiens, UniProt P35372).
T1 construct: expressed in transfected cells; membranes used
In words: biochemical. The method, then:
Other functional assays could also be used based on cAMP or other downstream end-points following receptor activation; however the GTPγS is the preferred approach. […] Since the AAnAI is based on Cmax it can be calculated for any route of administration for the combination.
These values were determined using the GTPγS functional assay.
The [^35S]GTPγS assay measures the functional properties of a compound by quantifying the level of G-protein activation following agonist binding in studies using stably transfected cells, and is considered to be a measure of the efficacy of a compound. Membranes from CHO (Chinese Hamster Ovary) cells that stably expressed the cloned human μ opioid receptor were used in the experiments. […] The assay buffer consisted of 50 mM Tris-HCl, pH 7.4, 3 mM MgCl2, 0.2 mM EGTA, 3 μM GDP, and 100 mM NaCl. The final concentration of [35S]GTPγS was 0.080 nM. Nonspecific binding was measured by inclusion of 10 μM GTPγS. Binding was initiated by the addition of the membranes. After an incubation of 60 min at 30° C., the samples were filtered through Schleicher & Schuell No. 32 glass fiber filters. The filters were washed three times with cold 50 mM Tris-HCl, pH 7.5, and were counted in 2 mL of Ecoscint scintillation fluid.

Data set [3] is described as follows: Rat plasma Cmax of antagonists given with buprenorphine. The settings on record: male, sc.
Experimental: Male rats weighing between 300-400 grams, the same weight range used in the microdialysis studies, were used for these PK experiments. […] Sample of blood were collected at 5, 15, 30, 60 and 120 minutes post dosing. […] The collection tubes were inverted 10-15 times and then held on ice prior to centrifugation.
In data set [4] the test system is dopamine efflux in the Nucleus Accumbens shell (NAc-sh). The experiment in a line: In vivo microdialysis, buprenorphine-induced dopamine efflux. As to conditions: antagonist plus buprenorphine 0.1 mg/kg SC.
Experimental: Experiments were conducted in rats to assess the ability of opioid antagonists to modulate buprenorphine-induced dopamine efflux in the Nucleus Accumbens shell (NAc-sh) region of the mesolimbic region of the brain. Male rats weighing 300-400 grams were used for all studies. To measure the efflux of dopamine in the NAc-sh an in vivo microdialysis method was utilized in free-moving rats. This method allows the sampling of extracellular cerebrospinal fluid (CSF) from specific brain regions of interest and measurement of neurotransmitter concentrations following the analysis of sampled dialysate with HPLC-EC.
Each rat underwent surgical implantation of microdialysis guide cannula (CMA 12, CMA Microdialysis) to facilitate the insertion of the microdialysis probe later on. Rats were anesthetized with a mixture of ketamine/xylazine (80/6 mg/kg IP) and placed in a stereotaxic apparatus. […] Guide cannula were capped with dummy probes until microdialysis probe insertion. On the day prior to experimentation (3-4 days post-surgery), animals were weighed to determine appropriate dose for test articles. A microdialysis probe (CMA 12, 2 mm membrane, CMA microdialysis) was then inserted through the guide cannula. […] Each sample was analyzed via HPLC-EC to determine neurotransmitter concentration of dopamine based upon a six-point standard curve.
For data set [5] the following is noted: 50 mg dose of naltrexone; cited from earlier work.

T1 sequence (P35372 whole entry): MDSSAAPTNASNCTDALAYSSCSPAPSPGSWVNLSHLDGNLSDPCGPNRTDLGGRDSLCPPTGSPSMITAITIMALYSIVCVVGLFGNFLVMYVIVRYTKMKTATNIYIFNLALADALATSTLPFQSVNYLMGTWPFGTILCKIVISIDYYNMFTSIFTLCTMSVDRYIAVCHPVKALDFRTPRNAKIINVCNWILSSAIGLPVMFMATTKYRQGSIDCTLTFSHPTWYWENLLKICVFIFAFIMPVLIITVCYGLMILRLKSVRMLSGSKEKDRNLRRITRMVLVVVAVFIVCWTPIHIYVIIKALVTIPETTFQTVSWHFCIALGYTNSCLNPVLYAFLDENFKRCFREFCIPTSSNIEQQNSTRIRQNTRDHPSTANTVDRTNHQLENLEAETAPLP

As to `NC(=O)c1ccc2c(c1O)[C@]13CCN(CC4CC4)[C@H](C2)[C@]1(O)CCC(=O)C3` [Compound-1], in data set [1], the “Buprenorphine effect on 5-HIAA” value is “complete attenuation of buprenorphine effects”. Also, the “Buprenorphine effect on NAc-sh dopamine” value in data set [1] is listed as “complete attenuation of buprenorphine effects”. Also, the Cmax in data set [2] was found to be 25.8 ng/mL; in data set [2] (other: sublingual), 69.6 nM; in data set [3] (0.3 mg/kg) it was 11.8 ng/mL; in data set [3] (1 mg/kg), 75.5 ng/mL. On human μ opioid receptor, the half-maximal inhibitory concentration (IC50) was 0.9 nM. In addition, the Imax at human μ opioid receptor is given as greater than 95%.
As to `C=C1CC[C@@]2(O)[C@H]3Cc4ccc(C(N)=O)c(O)c4[C@@]2(CCN3CC2CC2)C1` [Compound-10], the IC50 on human μ opioid receptor is 0.23 nM. In addition, the Cmax in data set [3] (0.03 mg/kg) was found to be 2.24 ng/mL; in data set [3] (0.1 mg/kg), 18.1 ng/mL; in data set [3] (0.3 mg/kg) it was 29.5 ng/mL.
With `C=C1CC[C@@]2(O)[C@H]3Cc4ccc(O)c5c4[C@@]2(CCN3CC2CC2)[C@H]1O5` [Nalmefene, nalmefene], the “NAc-sh dopamine efflux induced by buprenorphine” value in data set [4] is recorded as “more potent”. Moreover, the figures for the Cmax in data set [3] (0.1 mg/kg), in data set [3] (0.3 mg/kg) and in data set [3] (1 mg/kg) were 14.1 ng/mL, 25.6 ng/mL and 162 ng/mL, respectively.
`O=C1CC[C@@]2(O)[C@H]3Cc4ccc(O)c5c4[C@@]2(CCN3CC2CC2)[C@H]1O5` [Naltrexone, naltrexone]: the Cmax result was “approximately 10 ng/mL” in data set [5], 19.3 ng/mL in data set [3] (0.1 mg/kg), 76.9 ng/mL in data set [3] (0.3 mg/kg) and 169 ng/mL in data set [3] (1 mg/kg).
